From the OligoGym collection come the findings set out here.

These antisense oligonucleotides have a phosphorothioate backbone; sugars and methylation of C are not fully specified. Some results are limits rather than exact numbers.

Some targets named below: RIPK1; FADD; PTEN; SMAD4.
Holding throughout (details): ASO
Note: test concentration or dose not given here.

Regarding AAAAGGGTCATGGGAGAC, the remaining target (mRNA or protein) (fraction of control) with RIPK1 is not below 1.

As for AAGATACGAGATCCCGCT, in the series with FADD, the remaining target (mRNA or protein) (fraction of control) stood at 0.64.

Take AAGGAAGATTTAGAGAGT: the remaining target (mRNA or protein) (fraction of control) in the series with FADD is 0.72.

Turning to AATTATTTCCTTTCTGAG, the remaining target (mRNA or protein) (fraction of control) in the series with PTEN was 0.86.

ACACCGAGTGCAGCAGCA: the remaining target (mRNA or protein) (fraction of control) with FADD turned out to be 0.82.

In the series with PTEN, ACATAGCGCCTCTGACTG yielded a remaining target (mRNA or protein) (fraction of control) of 0.28.

As for ACATCTGGCCTGTTCCCA, the remaining target (mRNA or protein) (fraction of control) in the series with RIPK1 was 0.56.

In the series with FADD, ACCAGGAACGGGTCCATG returned a remaining target (mRNA or protein) (fraction of control) of 0.92.

As for ACCTTTCCCTATGAATGA, in the series with SMAD4, the remaining target (mRNA or protein) (fraction of control) is 0.65.

ACGATTACTTGGTGGATG: the remaining target (mRNA or protein) (fraction of control) in the series with SMAD4 stood at 0.88.

ACTCTCTCCACCTTGTCT gave a remaining target (mRNA or protein) (fraction of control) with SMAD4 of 0.57.

Regarding ACTGGAATAAAACGGGAA, the remaining target (mRNA or protein) (fraction of control) with PTEN came out at 0.85.

Regarding ACTGGGATATTATGCAGA, the remaining target (mRNA or protein) (fraction of control) in the series with RIPK1 worked out at 0.98.

ACTTCAGTTGGTGACAGA: the remaining target (mRNA or protein) (fraction of control) with PTEN came out at 0.31.

Sequence AGACACTATCACATTTTA registered a remaining target (mRNA or protein) (fraction of control) in the series with SMAD4 not below 1.

In the series with RIPK1, AGTCTGTTCATCATCTTC had a remaining target (mRNA or protein) (fraction of control) of 0.96.

AGTTGTAAAGCTGTGTTT gave a remaining target (mRNA or protein) (fraction of control) in the series with FADD of 0.57.

On to ATAAAGATGGTAGTTGGC, for which the remaining target (mRNA or protein) (fraction of control) in the series with RIPK1 was not below 1.

Take ATCCTTTGGAAACAGTGA: the remaining target (mRNA or protein) (fraction of control) with SMAD4 is not below 1.

Consider ATCTGGTAAACCTTTTCT, for which, in the series with RIPK1, the remaining target (mRNA or protein) (fraction of control) is 0.99.

In the case of ATCTTAATGACATTCAAG, the remaining target (mRNA or protein) (fraction of control) with RIPK1 was not below 1.

As to ATGGGCTCTGGTGAAGGA, in the series with FADD, the remaining target (mRNA or protein) (fraction of control) was not below 1.

ATTCGCTTCCCAGCAGAG returned a remaining target (mRNA or protein) (fraction of control) with RIPK1 of 0.7.

ATTCTCTTCTTGTGGGTG displayed a remaining target (mRNA or protein) (fraction of control) with RIPK1 not below 1.

With ATTTTATAGATTCATCTG, in the series with RIPK1, the remaining target (mRNA or protein) (fraction of control) is not below 1.

As to CAAGTTGAAGAGACTGCA, the remaining target (mRNA or protein) (fraction of control) in the series with RIPK1 is not below 1.

In the case of CAATGATTTCCCAAATTA, the remaining target (mRNA or protein) (fraction of control) in the series with RIPK1 is not below 1.

In the series with SMAD4, CAATGGCTTCTGTCCTGT yielded a remaining target (mRNA or protein) (fraction of control) not below 1.

In the series with FADD, CACACAGGTCTTCTTCCC yielded a remaining target (mRNA or protein) (fraction of control) not below 1.

In the series with FADD, CACCACAGCACCCCGCCT returned a remaining target (mRNA or protein) (fraction of control) of 0.95.

For CAGGTGGTAGTGCTGTTA, in the series with SMAD4, the remaining target (mRNA or protein) (fraction of control) is not below 1.

CAGTAAATCCATTCTGCT returned a remaining target (mRNA or protein) (fraction of control) with SMAD4 not below 1.

In the series with SMAD4, CAGTAACAATAGGGCAGC registered a remaining target (mRNA or protein) (fraction of control) not below 1.

On to CAGTGCTTTCCCAGATTT, for which the remaining target (mRNA or protein) (fraction of control) with RIPK1 came to 0.94.

CATACATAACAGGTGAAG gave a remaining target (mRNA or protein) (fraction of control) with SMAD4 of 0.91.

CATACTTGATGGAGCATT returned a remaining target (mRNA or protein) (fraction of control) with SMAD4 not below 1.

As to CATAGGCGGGTGGTGCTG, the remaining target (mRNA or protein) (fraction of control) with SMAD4 is not below 1.

For CATGGAGAAGAGGTCTAG, the remaining target (mRNA or protein) (fraction of control) with FADD amounted to 0.71.

With CATGGTCAATTTCATCAA, the remaining target (mRNA or protein) (fraction of control) with RIPK1 is not below 1.

The sequence CCACTTCCCTCAGCTCAT showed a remaining target (mRNA or protein) (fraction of control) with RIPK1 not below 1.

For CCAGCGGCCCAAGGATTC, the remaining target (mRNA or protein) (fraction of control) with FADD was not below 1.

CCATATAATTGTAGGCTC returned a remaining target (mRNA or protein) (fraction of control) in the series with RIPK1 not below 1.

Consider CCATCAGGACGCTTCGGA, for which the remaining target (mRNA or protein) (fraction of control) with FADD is 0.93.

In the series with RIPK1, CCATGTAGTAGAGGGTGC returned a remaining target (mRNA or protein) (fraction of control) not below 1.

As to CCCCACATTATCACATAT, the remaining target (mRNA or protein) (fraction of control) with FADD was 0.9.

CCCCGCCTCGAAGTCGTC had a remaining target (mRNA or protein) (fraction of control) with FADD of 0.82.

CCCTATCAGTGAGGACAG came in with a remaining target (mRNA or protein) (fraction of control) with RIPK1 not below 1.

For CCCTGGGTTCTGTGGAAA, the remaining target (mRNA or protein) (fraction of control) with RIPK1 amounted to 0.7.

Sequence CCGGTGGCCTCCAAGGAA returned a remaining target (mRNA or protein) (fraction of control) with FADD not below 1.

Take CCTGCTGGGTCTTCACAG: in the series with FADD, the remaining target (mRNA or protein) (fraction of control) was not below 1.

Take CCTTCACTATGGCTGCCC: the remaining target (mRNA or protein) (fraction of control) with SMAD4 amounted to 0.3.

In the case of CGCAGCTTGAGTTCAGAA, the remaining target (mRNA or protein) (fraction of control) with FADD is 0.65.

CGCGCCCGAGGCATAGGA had a remaining target (mRNA or protein) (fraction of control) with FADD of 0.75.

Regarding CTCCAGCTTGCGCTTGAC, the remaining target (mRNA or protein) (fraction of control) with FADD was determined as 0.78.

The sequence CTCCAGGTCGTTCTGCTC yielded a remaining target (mRNA or protein) (fraction of control) with FADD of 0.65.

Turning to CTCCCGCACACGCTCTGT, in the series with FADD, the remaining target (mRNA or protein) (fraction of control) is not below 1.

The sequence CTCCGGTGCCTGATTCAC gave a remaining target (mRNA or protein) (fraction of control) with FADD of 0.94.

For the sequence CTCTATGATGACGCCCAG, the remaining target (mRNA or protein) (fraction of control) with RIPK1 worked out at 0.69.

As to CTGTATGGTAACACATTT, the remaining target (mRNA or protein) (fraction of control) in the series with SMAD4 was not below 1.
